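Five concentrations, 48 hours, 96-well plates. GI50 = concentration required for 50% inhibition of growth.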 Calls of active or inactive are those of the source. No stated cut-off is given here; in the data, active = GI50 up to about 1.1 µM and inactive = higher.
What was measured:
Assay in all cases: NCI tumour cell line growth inhibition, 48 h
SR = tested on: SR
SNB-75 = tested on: SNB-75
HOP-92 = tested on: HOP-92
NCI-H460 = tested on: NCI-H460
SF-268 = tested on: SF-268
TK-10 = tested on: TK-10
SW-620 = tested on: SW-620
SNB-19 = tested on: SNB-19
K562 = tested on: K562
HT-29 = tested on: HT-29
KM12 = tested on: KM12
UACC-62 = tested on: UACC-62
BT-549 = tested on: BT-549
PC-3 = tested on: PC-3
RXF 393 = tested on: RXF 393
Malme-3M = tested on: Malme-3M
COLO 205 = tested on: COLO 205
UACC-257 = tested on: UACC-257
SF-295 = tested on: SF-295
MDA-N = tested on: MDA-N

SMILES | GI50 (SR) | GI50 (SNB-75) | GI50 (HOP-92) | GI50 (NCI-H460) | GI50 (SF-268) | GI50 (TK-10) | GI50 (SW-620) | GI50 (SNB-19) | GI50 (K562) | GI50 (HT-29) | GI50 (KM12) | GI50 (UACC-62) | GI50 (BT-549) | GI50 (PC-3) | GI50 (RXF 393) | GI50 (Malme-3M) | GI50 (COLO 205) | GI50 (UACC-257) | GI50 (SF-295) | GI50 (MDA-N)
COc1cc(/C=C2\CCc3ccccc3C2=O)ccc1O | 11.2 µM (inactive) | 28.5 µM (inactive) | 22.6 µM (inactive) | 17.3 µM (inactive) | 27.1 µM (inactive) | 18.7 µM (inactive) | 16.1 µM (inactive) | 14.6 µM (inactive) | 16.8 µM (inactive) | 18.2 µM (inactive) | 16.3 µM (inactive) | > 10 µM (inactive) | 17.9 µM (inactive) | > 10 µM (inactive) | 12 µM (inactive) | – | – | – | – | –
COc1ccc(S(=O)(=O)c2ccccc2[N+](=O)[O-])cc1 | > 100 µM (inactive) | 21.9 µM (inactive) | > 100 µM (inactive) | > 100 µM (inactive) | > 100 µM (inactive) | > 100 µM (inactive) | > 100 µM (inactive) | > 100 µM (inactive) | > 100 µM (inactive) | > 100 µM (inactive) | > 100 µM (inactive) | > 100 µM (inactive) | – | – | 55.6 µM (inactive) | 81.1 µM (inactive) | > 100 µM (inactive) | 71.8 µM (inactive) | 62.8 µM (inactive) | –
C/C=C1/C(=Cc2[nH]c(C=c3[nH]/c(=C/C4=NC(=O)C(CC)=C4C)c(C)c3CCC(=O)O)c(CCC(=O)O)c2C)NC(=O)C1C (configuration not stated) | 4.37 µM (inactive) | 4.79 µM (inactive) | 0.0173 µM (active) | 13 µM (inactive) | 7.89 µM (inactive) | > 50 µM (inactive) | 2.96 µM (inactive) | > 50 µM (inactive) | 2.21 µM (inactive) | 5.11 µM (inactive) | 10.8 µM (inactive) | 8 µM (inactive) | – | – | > 50 µM (inactive) | 13.6 µM (inactive) | 18.1 µM (inactive) | 11 µM (inactive) | 6.65 µM (inactive) | –
COC(=O)C1(CCCCCBr)CCCCCCCCCCC1=O (configuration not stated) | 33.5 µM (inactive) | – | 58.7 µM (inactive) | 58.6 µM (inactive) | 51.6 µM (inactive) | > 100 µM (inactive) | 72.4 µM (inactive) | > 100 µM (inactive) | 32.9 µM (inactive) | 42.2 µM (inactive) | 46.5 µM (inactive) | 79.6 µM (inactive) | – | 44.1 µM (inactive) | 23.4 µM (inactive) | 19.7 µM (inactive) | 31.8 µM (inactive) | 23.7 µM (inactive) | 35.6 µM (inactive) | 29.2 µM (inactive)
COc1nc(N)c(NC(C)=O)c(=O)n1C | > 100 µM (inactive) | > 100 µM (inactive) | 39.9 µM (inactive) | > 100 µM (inactive) | > 100 µM (inactive) | > 100 µM (inactive) | > 100 µM (inactive) | > 100 µM (inactive) | > 100 µM (inactive) | > 100 µM (inactive) | > 100 µM (inactive) | – | – | – | > 100 µM (inactive) | > 100 µM (inactive) | > 100 µM (inactive) | > 100 µM (inactive) | > 100 µM (inactive) | –
O=C1OC(c2ccccc2)=N/C1=C\c1cn[nH]n1 | 59.6 µM (inactive) | > 100 µM (inactive) | > 100 µM (inactive) | > 100 µM (inactive) | > 100 µM (inactive) | > 100 µM (inactive) | > 100 µM (inactive) | > 100 µM (inactive) | > 100 µM (inactive) | > 100 µM (inactive) | > 100 µM (inactive) | > 100 µM (inactive) | – | > 100 µM (inactive) | > 100 µM (inactive) | 83.4 µM (inactive) | > 100 µM (inactive) | > 100 µM (inactive) | > 100 µM (inactive) | > 100 µM (inactive)
CC[C@]1(Cc2ccc(OC)c(OC)c2)C=[N+]([O-])O[C@H](OCc2ccccc2)[C@@H]1OC(C)=O | 24.3 µM (inactive) | 30.5 µM (inactive) | 23.9 µM (inactive) | 31 µM (inactive) | 23.7 µM (inactive) | 41.7 µM (inactive) | 32.8 µM (inactive) | 58.3 µM (inactive) | 20.9 µM (inactive) | 29.5 µM (inactive) | 22.2 µM (inactive) | 26.2 µM (inactive) | – | 20.5 µM (inactive) | 18.2 µM (inactive) | 20.7 µM (inactive) | 17.1 µM (inactive) | 21.3 µM (inactive) | 53.6 µM (inactive) | 36.1 µM (inactive)
COc1ccc2c3c1OC1C(OC)(OC)C=C[C@@]4(Br)[C@@H](C2)N(CC2CC2)CC[C@]314 (some centres not stated) | > 100 µM (inactive) | 96.4 µM (inactive) | 23.8 µM (inactive) | 62.7 µM (inactive) | 32.1 µM (inactive) | > 100 µM (inactive) | 33.7 µM (inactive) | > 100 µM (inactive) | 52.8 µM (inactive) | 61.9 µM (inactive) | > 100 µM (inactive) | 68.5 µM (inactive) | – | 99.1 µM (inactive) | 76.4 µM (inactive) | 37.1 µM (inactive) | 31.8 µM (inactive) | 69.8 µM (inactive) | > 100 µM (inactive) | 49.5 µM (inactive)
O[C@@H]1CCC[C@@H]2NC[C@@H](c3ccc4c(c3)OCO4)[C@H]12 | > 100 µM (inactive) | > 100 µM (inactive) | > 100 µM (inactive) | > 100 µM (inactive) | > 100 µM (inactive) | > 100 µM (inactive) | > 100 µM (inactive) | > 100 µM (inactive) | > 100 µM (inactive) | > 100 µM (inactive) | > 100 µM (inactive) | > 100 µM (inactive) | – | > 100 µM (inactive) | > 100 µM (inactive) | > 100 µM (inactive) | > 100 µM (inactive) | > 100 µM (inactive) | > 100 µM (inactive) | > 100 µM (inactive)
Cc1ccc(Oc2ccc(C)cc2[N+](=O)[O-])cc1 | 33.7 µM (inactive) | 22.9 µM (inactive) | 28.6 µM (inactive) | 90.8 µM (inactive) | > 100 µM (inactive) | > 100 µM (inactive) | > 100 µM (inactive) | – | 38.5 µM (inactive) | 40.7 µM (inactive) | > 100 µM (inactive) | > 100 µM (inactive) | – | – | 26.5 µM (inactive) | > 100 µM (inactive) | > 100 µM (inactive) | 62.5 µM (inactive) | > 100 µM (inactive) | –
COC(=N)c1ncn(Cc2ccccc2)c1N | – | > 100 µM (inactive) | > 100 µM (inactive) | > 100 µM (inactive) | > 100 µM (inactive) | > 100 µM (inactive) | > 100 µM (inactive) | > 100 µM (inactive) | > 100 µM (inactive) | > 100 µM (inactive) | > 100 µM (inactive) | > 100 µM (inactive) | – | > 100 µM (inactive) | > 100 µM (inactive) | > 100 µM (inactive) | > 100 µM (inactive) | > 100 µM (inactive) | > 100 µM (inactive) | > 100 µM (inactive)
CCOC(=O)Nc1ccc(S(=O)(=O)OC)cc1.CCOC(=O)Nc1ccc(S(=O)(=O)OC)cc1.NC(=O)NCCO | > 50 µM (inactive) | > 50 µM (inactive) | > 50 µM (inactive) | 22.1 µM (inactive) | > 50 µM (inactive) | 48 µM (inactive) | 28.8 µM (inactive) | > 50 µM (inactive) | 16.1 µM (inactive) | 31.8 µM (inactive) | > 50 µM (inactive) | > 50 µM (inactive) | – | – | > 50 µM (inactive) | > 50 µM (inactive) | 30.9 µM (inactive) | 29.6 µM (inactive) | > 50 µM (inactive) | –
CC1(C)OC(C(N)=O)=C(C(N)=O)O1 | 6.53 µM (inactive) | > 100 µM (inactive) | > 100 µM (inactive) | > 100 µM (inactive) | > 100 µM (inactive) | > 100 µM (inactive) | > 100 µM (inactive) | > 100 µM (inactive) | > 100 µM (inactive) | > 100 µM (inactive) | > 100 µM (inactive) | > 100 µM (inactive) | – | – | > 100 µM (inactive) | > 100 µM (inactive) | > 100 µM (inactive) | > 100 µM (inactive) | > 100 µM (inactive) | –
CSCCCCCCCCCCOc1ccc(C=C2C(=C(C#N)C#N)c3ccccc3C2=C(C#N)C#N)cc1 | 15 µM (inactive) | – | 11.7 µM (inactive) | 17.7 µM (inactive) | 17.9 µM (inactive) | 19.4 µM (inactive) | 17.8 µM (inactive) | – | 30.6 µM (inactive) | 17.3 µM (inactive) | 19 µM (inactive) | – | – | 17.6 µM (inactive) | 17.3 µM (inactive) | – | – | 18.9 µM (inactive) | 17.2 µM (inactive) | 18.3 µM (inactive)
O=C1NC(N2CCOCC2)=N/C1=C\c1ccccc1O | – | > 100 µM (inactive) | > 100 µM (inactive) | – | > 100 µM (inactive) | > 100 µM (inactive) | > 100 µM (inactive) | > 100 µM (inactive) | > 100 µM (inactive) | > 100 µM (inactive) | > 100 µM (inactive) | – | – | > 100 µM (inactive) | > 100 µM (inactive) | > 100 µM (inactive) | > 100 µM (inactive) | > 100 µM (inactive) | > 100 µM (inactive) | > 100 µM (inactive)
COc1ccc(-c2cc(N3CCN(c4ccc(Cl)cc4)CC3)c(C#N)c(=O)o2)cc1 | > 100 µM (inactive) | 3.25 µM (inactive) | > 100 µM (inactive) | 10.5 µM (inactive) | 5.38 µM (inactive) | 16.5 µM (inactive) | 40 µM (inactive) | 2.93 µM (inactive) | – | > 100 µM (inactive) | > 100 µM (inactive) | – | – | – | 5.12 µM (inactive) | 7.74 µM (inactive) | > 100 µM (inactive) | 17.9 µM (inactive) | 4.28 µM (inactive) | –

Reference: ChEMBL document CHEMBL1201862, “PubChem BioAssay data set” (2004)
